Results as given in BindingDB's records for doi:10.1074/jbc.M112.341321 (Council of Scientific and Industrial Research (Csir) Indian …, 2012).

Columns and labels:
Assay in all cases: Tautomerase Activity Assay
[1] = biological target: T1, Macrophage migration inhibitory factor (Homo sapiens, UniProt P14174)
T1 sequence (P14174 whole entry): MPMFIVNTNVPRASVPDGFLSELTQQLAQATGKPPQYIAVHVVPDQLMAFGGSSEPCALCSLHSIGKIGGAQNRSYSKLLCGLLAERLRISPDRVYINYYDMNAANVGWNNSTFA
Text: (§1) The tautomerase activity of MIFs was monitored by following the tautomerization of L-dopachrome methyl ester by the recombinant MIFs in the presence or absence of increasing concentrations of all six limonoids extracted from neem.

[2] = biological target: T2, Macrophage migration inhibitory factor-like protein (Plasmodium yoelii yoelii, UniProt Q1HEA2)
T2 sequence (Q1HEA2 whole entry): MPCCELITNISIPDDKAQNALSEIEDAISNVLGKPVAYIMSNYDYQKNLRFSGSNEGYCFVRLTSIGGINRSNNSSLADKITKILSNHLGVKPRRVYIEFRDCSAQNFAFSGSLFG
Text: as §1

[3] = biological target: T3, Macrophage migration inhibitory factor (Plasmodium falciparum (isolate 3D7), UniProt Q8I5C5)
T3 sequence (Q8I5C5 whole entry): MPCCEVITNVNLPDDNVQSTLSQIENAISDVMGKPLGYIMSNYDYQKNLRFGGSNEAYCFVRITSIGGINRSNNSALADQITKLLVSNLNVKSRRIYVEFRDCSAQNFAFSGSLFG
Text: as §1

Row | SMILES | IC50 [1] [µM] | IC50 [2] [µM] | IC50 [3] [µM]
1 | CC(=O)O[C@@H]1C[C@H]2C(C)(C)C(=O)C=C[C@]2(C)[C@H]2CC[C@]3(C)C(=CC(=O)[C@H]3c3ccoc3)[C@@]21C [Azadiradione] | 35.2 | 43 | 45.6
2 | CC(=O)O[C@@H]1C[C@H]2C(C)(C)C(=O)C=C[C@]2(C)[C@H]2CC[C@@]3(C)[C@H](c4ccoc4)C(=O)[C@H]4O[C@]43[C@@]21C [Epoxyazadiradione] |  | 9.8 | 9.5
3 | COC(=O)C[C@H]1[C@]2(C)C3=C(C)[C@H](c4ccoc4)C[C@H]3O[C@@H]2[C@H](OC(C)=O)[C@@H]2[C@]1(C)C(=O)C=C[C@@]2(C)C(=O)OC [Nimbin] | 17.5 | 22.4 | 22.5
4 | C/C=C(\C)C(=O)O[C@H]1C[C@@H](OC(C)=O)[C@@]2(C)CO[C@H]3[C@H]4O[C@@H]5C[C@@H](c6ccoc6)C(C)=C5[C@@]4(C)[C@H](CC(=O)OC)[C@]1(C)[C@@H]32 [Salannin] | 85.3 | 95.2 | 89.5
